Laboratory results published in PMC3821907, “Synthesis of Novel Compounds as New Potent Tyrosinase Inhibitors” (BioMed Research International, 2013).

Legend:
mushroom tyrosinase = experiment: Tyrosinase inhibition assay (diphenolase activity, L-DOPA substrate); format: biochemical; conditions: L-DOPA 0.5 mM, pH 6.8, 25°C, mean ± SEM, read-out: IC50 ± SEM, tyrosinase inhibitory activity
Procedure: The spectrophotometric assay for tyrosinase was performed according to the method Ref 15. Briefly, all the synthesized compounds were screened for the diphenolase inhibitory activity of tyrosinase using L-DOPA as substrate. All the compounds were dissolved in DMSO. The final concentration of DMSO in the test solution was 2.0%. Phosphate buffer, pH=6.8, was used to dilute the DMSO stock solution of test compounds. Thirty units of mushroom tyrosinase (0.5 mg/mL) were first preincubated with the compounds, in 50 mM phosphate buffer (pH 6.8), for 10 min at 25°C. Then the L-DOPA (0.5 mM) was added to the reaction mixture, and the enzyme reaction was monitored by measuring the change in absorbance at 475 nm of formation of the L-DOPA chrome for 10 min. The measurement was performed in triplicate for each concentration and averaged before further calculation. […] The percent of inhibition of tyrosinase reaction was calculated as the following: Inhibition (%) = [B−S/B] × 100. Here, the B and S are the absorbances for the blank and samples.

Cytotoxicity assay (MTT) = format: cell-based; conditions: B16F10 mouse melanoma cells, read-out: Cytotoxicity cell viability (%)
Procedure: (§1) Also inhibitions of the compounds 5a–5f were tested on melanin production and their cytotoxicity on B16F10 mouse melanoma cells at concentrations of 20 μg/mL.
Cytotoxicity assays were performed using a microculture MTT method described by Han et al.. A B16F10 mouse melanoma cell suspension was poured into a 96-well plate (10^3 cells/well), and cells were allowed to completely stick […] overnight. Test samples were then added to the plate and were incubated at 37°C for 72 h in a CO2 incubator. 20 μL of MTT solution (2 mg/mL) was then added per well and incubated for 4 hours. Supernatant was then removed, and formazan was solubilized by adding 150 μL DMSO to each well with mild shaking. Absorbance at 490 nm was recorded using an ELISA plate reader.

[1] = system: B16F10 mouse melanoma cells; experiment: Inhibition of melanin production; format: cell-based; conditions: 72 h; for inhibition at 20 µg/mL: B16-F10, 20 μg/mL
Procedure: as §1
Melanin production inhibition was ascertained by method of Wang et al.. A total of 8 × 10^4 cells were added to 60 mm plates and were incubated at 37°C in a CO2 incubator, then, 10 μL test samples in DMSO were added to plates and were incubated for 72 hours at 37°C in a CO2 incubator. After washing with PBS, cells were destroyed with 1 mL of 1 N NaOH, and 200 μL portions of raw cell extracts were moved to 96-well plates. Melanin production inhibition was determined by recording absorbance at 495 nm. The effects of test samples on melanin contents are stated as percent inhibitions of the value obtained in B16F10 mouse melanoma cells which were cultured with DMSO alone.

Row | Compound | IC50 (mushroom tyrosinase) | melting point | viability at 72 h, 20 μg/mL (Cytotoxicity assay (MTT)) | inhibition at 20 µg/mL [1] | viability at 72 h, 200 µg/mL (Cytotoxicity assay (MTT); tested at 200 µg/mL) | inhibition at 200 µg/mL ([1]; B16-F10, tested at 200 µg/mL)
1 | CC(=O)Oc1c(/N=N/c2ccc(C(=O)N/C(=C/c3ccc(F)cc3)C(=O)Sc3ccc(C)cc3S)cc2)ccc2ccccc12 [Compound 5c, 2-[(E)-2-(4-{[((E)-2-(4-fluorophenyl)-1-{[(4-methyl-2-sulfanylphenyl)sulfanyl]carbonyl}-1-ethenyl)amino]carbonyl}phenyl)-1-diazenyl]-1-naphthyl Acetate] | 2.68 ± 0.55 µM | 308 °C (dec.) | 83.2 ± 2.22% | 35.9 ± 3.11% | – | –
2 | CC(=O)Oc1c(/N=N/c2ccc(C(=O)N/C(=C/c3ccc(OC(F)(F)F)cc3)C(=O)Sc3ccc(C)cc3S)cc2)ccc2ccccc12 [Compound 5d, 2-((E)-2-{4-[({(E)-1-{[(4-Methyl-2-sulfanylphenyl)sulfanyl]carbonyl}-2-[4-(trifluoromethoxy)phenyl]-1-ethenyl}amino)carbonyl]phenyl}-1-diazenyl)-1-naphthyl Acetate] | 2.48 ± 0.88 µM | 318 °C (dec.) | 84.7 ± 5.38% | 37.5 ± 4.09% | – | –
3 | Cc1ccc(SC(=O)/C(=C\c2ccc(F)cc2)NC(=O)c2ccc(/N=N/c3ccc(N(C)C)cc3)cc2)c(S)c1 [Compound 5a, 4-Methyl-2-sulfanylphenyl(E)-2-[(4-{(E)-2-[4-(dimethylamino)phenyl]-1-diazenyl}benzoyl)amino]-3-(4-fluorophenyl)-2-propenethioate] | 4.39 ± 0.76 µM | 293 °C (dec.) | 82.2 ± 3.55% | 42.1 ± 0.75% | – | –
4 | O=c1cc(CO)occ1O [Kojic acid, reference compound] | – | – | – | – | 81.7 ± 1.23% | 17.3 ± 1.29%
5 | Cc1ccc(SC(=O)/C(=C\c2ccc(OC(F)(F)F)cc2)NC(=O)c2ccc(/N=N/c3ccc(N(C)C)cc3)cc2)c(S)c1 [Compound 5b, 4-Methyl-2-sulfanylphenyl(E)-2-[(4-{(E)-2-[4-(dimethylamino)phenyl]-1-diazenyl}benzoyl)amino]-3-[4-(trifluoromethoxy)phenyl]-2-propenethioate] | 3.86 ± 0.66 µM | 286 °C (dec.) | 80.1 ± 1.89% | 41 ± 4.33% | – | –

More lines, main results first:

Row | IC50 (mushroom tyrosinase) | melting point | Compound | viability at 72 h, 20 μg/mL (Cytotoxicity assay (MTT)) | inhibition at 20 µg/mL [1] | viability at 72 h, 200 µg/mL (Cytotoxicity assay (MTT); tested at 200 µg/mL) | inhibition at 200 µg/mL ([1]; B16-F10, tested at 200 µg/mL)
6 | 1.71 ± 0.49 µM | 320 °C (dec.) | CC(=O)Oc1ccc2ccccc2c1/N=N/c1ccc(C(=O)N/C(=C/c2ccc(OC(F)(F)F)cc2)C(=O)Sc2ccc(C)cc2S)cc1 [Compound 5f, 1-((E)-2-{4-[({(E)-1-{[(4-Methyl-2-sulfanylphenyl)sulfanyl]carbonyl}-2-[4-(trifluoromethoxy)phenyl]-1-ethenyl}amino)carbonyl]phenyl}-1-diazenyl)-2-naphthyl Acetate] | 80.6 ± 2.65% | 34.7 ± 2.22% | – | –
7 | 1.98 ± 0.39 µM | 325 °C (dec.) | CC(=O)Oc1ccc2ccccc2c1/N=N/c1ccc(C(=O)N/C(=C/c2ccc(F)cc2)C(=O)Sc2ccc(C)cc2S)cc1 [Compound 5e, 1-[(E)-2-(4-{[((E)-2-(4-fluorophenyl)-1-{[(4-methyl-2-sulfanylphenyl)sulfanyl]carbonyl}-1-ethenyl)amino]carbonyl}phenyl)-1-diazenyl]-2-naphthyl Acetate] | 81.9 ± 1.08% | 36.8 ± 1.44% | – | –
